From article PMC9358475 (The Journal of Biological Chemistry, 2022)

Legend:
[1] = system: ERK1/2; experiment: ERK-KTR live-cell ERK activity reporter in SH-SY5Y, […] h; assay type: cell-based
[2] = system: ERK1/2; experiment: ERK-KTR live-cell ERK activity reporter in HCT-116, […] h; assay type: cell-based

IC50 [1] | IC50 [2] | SMILES
75 nM | – | O=C(Nc1ccc2[nH]nc(-c3ccncc3)c2c1)[C@@H]1CCN(CC(=O)N2CCN(c3ccc(-c4ncccn4)cc3)CC2)C1 [SCH, SCH772984]
– | 32 nM | CC(C)Nc1cc(-c2c[nH]c(C(=O)N[C@H](CO)c3cccc(Cl)c3)c2)c(Cl)cn1 [Ulix, ulixertinib]
